In article PMC6264390, “Design, Synthesis and Structure-activity Studies of Rhodanine Derivatives as HIV-1 Integrase Inhibitors” (Molecules, 2010):

Legend:
[1] = molecular target: T1, human apurinic/apyrimidinic endonuclease 1 (APE1) (Homo sapiens, UniProt P27695); test: APE1 inhibition assay; format: biochemical; conditions: read-out: Inhibition of APE1 catalytic activity IC50
T1 construct: His; made in house
How it was run: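 His-tagged APE1 (0.05 nM) preincubated with compound 10 min at 30 °C in MOPS pH 7.2 buffer with 7.5 mM MnCl2 and 10% DMSO, then 200 nM 5′-32P-labelled abasic (THF) duplex added for 10 min. Incision products resolved on denaturing gel, phosphorimaged; IC50 from %I versus log concentration.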

[2] = system: HT 29 colon cancer cell line; test: MTT cytotoxicity assay, HT 29; format: cell-based; conditions: Homo sapiens, 72 h
From the text: Human melanoma cell line MDA-MB 435, pancreatic cancer cell line Panc-1, and colon cancer cell line HT 29 were purchased from the American Type Cell Culture (Manassas, VA, USA). HCT 116 p53^+/+ and HCT 116 p53^−/^− were kindly provided by Dr. Bert Vogelstein, Johns Hopkins Medical Institutions (Baltimore, MD, USA). HCT 116 p53^+/+, HCT116 p53^−/^−, and HT 29 cells were maintained as monolayer cultures in RPMI 1640 supplemented with 10% fetal bovine serum (FBS; Gemini-Bioproducts, Woodland, CA, USA) and 2 mmol/L L-glutamine at 37 °C in a humidified atmosphere of 5% CO2. Similarly, MDA-MB 435 and Panc-1 cells were maintained in Dulbecco’s modified Eagle’s medium (DMEM) supplemented with 10% fetal bovine serum as described above. […]
Cytotoxicity was assessed by 3-(4,5-dimethylthiazol-2-yl)-2,5-diphenyltetrazolium bromide (MTT) assay as previously described. […]
After 72 h exposure to the test compounds, MTT solution (5 mg/mL; 20 μL) was added to each well and cells were incubated for 4 h at 37 °C. […] The absorbance intensity was measured at 570 nm against appropriate blank controls using a microplate reader (Molecular Devices, Sunnyvale, CA, USA). […]

T1 sequence (P27695 whole entry): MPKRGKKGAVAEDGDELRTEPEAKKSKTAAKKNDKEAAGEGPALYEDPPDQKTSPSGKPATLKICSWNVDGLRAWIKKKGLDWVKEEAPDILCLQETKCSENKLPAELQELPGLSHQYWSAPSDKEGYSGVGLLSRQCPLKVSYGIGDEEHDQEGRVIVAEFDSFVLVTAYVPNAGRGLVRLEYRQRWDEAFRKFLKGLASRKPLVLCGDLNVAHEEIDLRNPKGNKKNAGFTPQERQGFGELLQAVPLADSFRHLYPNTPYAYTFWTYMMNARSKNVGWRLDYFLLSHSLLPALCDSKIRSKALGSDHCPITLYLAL

Compound | IC50 [1] | GI50 [2]
O=C(Nc1ccc(Cl)cc1)C(=S)NN1C(=O)C(=Cc2ccc([N+](=O)[O-])o2)SC1=S [Compound 13, N-(4-chlorophenyl)-2-{5-[(5-nitro-2-furyl)methylene]-4-oxo-2-thioxo-1,3-thiazolidin-3-yl}amino-2-thioxoacetamide] | 93 µM | > 10 µM
COc1ccc(NC(=O)C(=S)NN2C(=O)C(=Cc3ccc([N+](=O)[O-])o3)SC2=S)cc1 [Compound 17, N-(4-methoxyphenyl)-2-{5-[(5-nitro-2-furyl)methylene]-4-oxo-2-thioxo-1,3-thiazolidin-3-yl}amino-2-thioxoacetamide] | > 100 µM | 9.6 µM
